Results on 28 molecules are retold here after patent US11014895B2, “Heterocyclic urea compound, and drug composition and application thereof” (CHINA PHARMACEUTICAL UNIVERSITY, priority 2017, dated 2021).

One assay has as its target IDO1 enzyme (Homo sapiens, UniProt P14902). As to the kind of experiment: Determination of biochemical activity of IDO1 enzyme (absorbance at 320 nm). The conditions noted are these: room temperature, 3 hours. How it is done: (1) Method for Determining Biochemical Activity of IDO1 Enzyme
Firstly, 15 μl of buffer solution of sodium hydrogen phosphate (PH:7-8), 5 μl of reaction buffer solution containing a proper amount of IDO-1 enzyme and heterocyclic urea compound prepared by the invention were added into wells of a microplate, mixed evenly, and reacted at room temperature for 3 hours; then a light absorption value at 320 nm wavelength was detected by using Envision Multilabel Reader of PE company, an inhibition rate of the heterocyclic urea compound on the enzyme reaction was calculated according to an absorption ratio, and an IC50 value of the heterocyclic urea compound was calculated through analysis by GraphPad.

The target in assay [1] is T1, IDO1 enzyme in the Hela cell (Homo sapiens, UniProt P14902).
T1 construct: endogenous in cells; host or cells: HeLa cells stimulated with interferon γ (100 ng/ml)
As to the kind of experiment: Cell activity: interferon γ-stimulated Hela cells, absorbance of supernatant at 480 nm. Format: cell-based. Particulars: interferon γ 100 ng/ml, 72 hours. The protocol: (2) Method for Determining Cell Activity
Hela cells were cultured and passaged in a DMEM medium supplemented with antibiotics in a 37° C. CO2 incubator, inoculated into a 96-well plate for overnight culture, then 1 μl of heterocyclic urea compound with appropriate concentration was added to each well, and then 100 μl of interferon γ (final concentration was 100 ng/ml) was added. After the cells were continuously cultured for 72 hours, 70 μl of cell culture supernatant was added to a 96-well V-bottom plate, 5 μl of trichloroacetic acid (6.1 N) was added to each well, incubated at 50° C. for 30 min, then taken out and centrifuged at […] for 10 min. The above centrifuged supernatant was transferred to a 384-well microplate (20 μl/well), then 20 μl of 2% didimethylaminobenzaldehyde acetic acid solution was added to each well, shaken and mixed evenly, then photometric absorption was performed at 480 nm, and values were measured.

A value given as a limit tells only on which side of the number the result lay.

Sequence of IDO1 enzyme (P14902 whole entry): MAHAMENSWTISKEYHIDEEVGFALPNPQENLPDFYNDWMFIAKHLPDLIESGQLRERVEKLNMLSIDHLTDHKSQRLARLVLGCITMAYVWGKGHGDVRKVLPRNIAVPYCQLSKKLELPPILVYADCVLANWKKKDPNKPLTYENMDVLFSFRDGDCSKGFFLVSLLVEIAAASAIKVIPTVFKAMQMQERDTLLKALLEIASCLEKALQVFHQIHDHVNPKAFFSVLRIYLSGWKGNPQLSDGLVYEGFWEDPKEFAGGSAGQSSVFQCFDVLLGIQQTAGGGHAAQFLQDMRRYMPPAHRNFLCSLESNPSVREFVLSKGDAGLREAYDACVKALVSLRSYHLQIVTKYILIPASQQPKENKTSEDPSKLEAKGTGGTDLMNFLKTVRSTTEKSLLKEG
T1 sequence (P14902 whole entry): as above

Take `COc1ccc(NC(=O)Nc2nocc2/C(=N/O)Nc2ccc(F)c(Br)c2)cc1` [Embodiment 79, (Z)-1-(4-(N-(3-bromo-4-fluorophenyl)-N′-hydroxyaminoiminomethyl)-isoxazole-3-substituted)-3-(4-methoxyphenyl)urea]: the concentration for half-maximal inhibition (IC50) (against IDO1 enzyme; in assay [1]) was 0.1 to 1 µM in each case.
For the molecule `O=C(NCCO)Nc1conc1/C(=N/O)Nc1ccc(F)c(Br)c1` [Embodiment 110], the IC50 (against IDO1 enzyme; in assay [1]) was less than 0.001 µM in each case.
Regarding `O=C(Nc1ncc[nH]1)Nc1nonc1/C(=N/O)Nc1ccc(F)c(Br)c1` [Embodiment 46, (Z)-1-(4-(N-(3-bromo-4-fluorophenyl)-N′-hydroxyaminoiminomethyl)-1,2,5-oxadiazole-3-substituted)-3-(1H-imidazole-2-substituted)urea], the half-maximal inhibitory concentration (IC50) (against IDO1 enzyme; in assay [1]) was greater than 1 µM in each case.
As to `O=C(NCCO)Nc1cocc1/C(=N/O)Nc1ccc(F)c(Br)c1` [Embodiment 68, (Z)-1-(4-(N-(3-bromo-4-fluorophenyl)-N′-hydroxyaminoiminomethyl)-furan-3-substituted)+3-(2-hydroxyethyl)urea], the IC50 (on IDO1 enzyme; in assay [1]) was 0.1 to 1 µM in each case.
Turning to `NC1CCC(NC(=S)Nc2nonc2/C(=N/O)Nc2ccc(F)c(Br)c2)CC1` (centres unmarked) [Embodiment 126, (Z)-1-(4-(N-(3-bromo-4-fluorophenyl)-N′-hydroxyaminoiminomethyl)-1,2,5-oxadiazole-3-substituted)-3-(4-aminocyclohexyl)thiourea], the IC50 (against IDO1 enzyme; in assay [1]) was 0.1 to 1 µM throughout.
With `O=C(Nc1nonc1/C(=N/O)Nc1ccc(F)c(Br)c1)Nc1cccc2cc[nH]c12` [Embodiment 36, (Z)-1-(4-(N-(3-bromo-4-fluorophenyl)-N′-hydroxyaminoiminomethyl)-1,2,5-oxadiazole-3-substituted)-3-(1H-indole-7-substituted)urea], the 50% inhibitory concentration (IC50) (against IDO1 enzyme; in assay [1]) was 0.1 to 1 µM in each case.
As to `O=C(Nc1nonc1/C(=N/O)Nc1ccc(F)c(Br)c1)NC1CC1` [Embodiment 32, (Z)-1-(4-(N-(3-bromo-4-fluorophenyl)-N′-hydroxyaminoiminomethyl)-1,2,5-oxadiazole-3-substituted)-3-cyclopropylurea], the IC50 (at IDO1 enzyme; in assay [1]) was 0.1 to 1 µM throughout.
On to `O=C(Nc1conc1/C(=N/O)Nc1ccc(F)c(Br)c1)NC1CCC(O)CC1` (centres unmarked) [Embodiment 105], for which the IC50 (against IDO1 enzyme; in assay [1]) was less than 0.001 µM throughout.
As to `CS(=O)(=O)N1CCN(C(=O)Nc2nonc2/C(=N/O)Nc2ccc(F)c(Br)c2)CC1` [Embodiment 50], the 50% inhibitory concentration (IC50) (on IDO1 enzyme; in assay [1]) was 0.1 to 1 µM in each case.
Consider `N=C(Nc1nonc1/C(=N/O)Nc1ccc(F)c(Br)c1)NC1CCC(N)CC1` (centres unmarked) [Embodiment 150, (Z)-1-(4-(N-(3-bromo-4-fluorophenyl)-N′-hydroxyaminoiminomethyl)-1,2,5-oxadiazole-3-substituted)-3-(4-aminocyclohexyl)guanidine], for which the IC50 (against IDO1 enzyme; in assay [1]) was 0.1 to 1 µM in each case.
In the case of `O=C(Nc1nonc1/C(=N/O)Nc1ccc(F)c(Cl)c1)NC1CCCCC1` [Embodiment 25, (Z)-1-(4-(N-(3-chloro-4-fluorophenyl)-N′-hydroxyaminoiminomethyl)-1,2,5-oxadiazole-3-substituted)-3-cyclohexylurea], the half-maximal inhibitory concentration (IC50) (against IDO1 enzyme; in assay [1]) was 0.1 to 1 µM in each case.
`O=C(Nc1nocc1/C(=N/O)Nc1ccc(F)c(Br)c1)NC1CC1` [Embodiment 86, (Z)-1-(4-(N-(3-bromo-4-fluorophenyl)-N′-hydroxyaminoiminomethyl)-isoxazole-3-substituted)-3-(cyclopropyl)urea]: the IC50 (at IDO1 enzyme; in assay [1]) was greater than 1 µM throughout.
For `N=C(Nc1nocc1/C(=N/O)Nc1ccc(F)c(Br)c1)NC1CCCCC1` [Embodiment 159, (Z)-1-(4-(N-(3-bromo-4-fluorophenyl)-N′-hydroxyaminoiminomethyl)-isoxazole-3-substituted)-3-cyclohexylguanidine], the IC50 (on IDO1 enzyme; in assay [1]) was 0.1 to 1 µM throughout.
Turning to `O=C(Nc1cocc1/C(=N/O)Nc1ccc(F)c(Br)c1)Nc1c[nH]c2ccccc12` [Embodiment 74, (Z)-1-(4-(N-(3-bromo-4-fluorophenyl)-N′-hydroxyaminoiminomethyl)-furan-3-substituted)-3-(3-aminoindole)urea], the IC50 (against IDO1 enzyme; in assay [1]) was 0.1 to 1 µM each time.
Regarding `N=C(NCCO)Nc1nonc1/C(=N/O)Nc1ccc(F)c(Br)c1` [Embodiment 152, (Z)-1-(4-(N-(3-bromo-4-fluorophenyl)-N′-hydroxyaminoiminomethyl)-1,2,5-oxadiazole-3-substituted)-3-(2-hydroxyethyl)guanidine], the concentration for half-maximal inhibition (IC50) (against IDO1 enzyme; in assay [1]) was less than 0.001 µM each time.
For `NCCNC(=S)Nc1nonc1/C(=N/O)Nc1ccc(F)c(Br)c1` [Embodiment 129, (Z)-1-(4-(N-(3-bromo-4-fluorophenyl)-N′-hydroxyaminoiminomethyl)-1,2,5-oxadiazole-3-substituted)-3-(2-aminoethyl)thiourea], the IC50 (against IDO1 enzyme; in assay [1]) was 0.1 to 1 µM throughout.
Regarding `CCCNC(=O)Nc1cocc1/C(=N/O)Nc1ccc(F)c(Br)c1` [Embodiment 70, (Z)-1-(4-(N-(3-bromo-4-fluorophenyl)-N′-hydroxyaminoiminomethyl)-furan-3-substituted)-3-propylurea], the IC50 (at IDO1 enzyme; in assay [1]) was 0.1 to 1 µM in each case.
In the case of `COc1ccc(NC(=S)Nc2conc2/C(=N/O)Nc2ccc(F)c(Cl)c2)cc1` [Embodiment 130, (Z)-1-(4-(N-(3-chloro-4-fluorophenyl)-N′-hydroxyaminoiminomethyl)-isoxazole-3-substituted)-4-(4-methoxyphenyl)thiourea], the IC50 (against IDO1 enzyme; in assay [1]) was 0.1 to 1 µM throughout.
`COc1ccc(NC(=O)Nc2nonc2/C(=N/O)Nc2ccc(F)c(Cl)c2)cc1` [Embodiment 22, (Z)-1-(4-(N-(3-chloro-4-fluorophenyl)-N′-hydroxyaminoiminomethyl)-1,2,5-oxadiazole-3-substituted)-3-(4-methoxyphenyl)urea]: the 50% inhibitory concentration (IC50) (at IDO1 enzyme; in assay [1]) was 0.1 to 1 µM in each case.
Take `CCCNC(=O)Nc1nocc1/C(=N/O)Nc1ccc(F)c(Br)c1` [Embodiment 91, (Z)-1-(4-(N-(3-bromo-4-fluorophenyl)-N′-hydroxyaminoiminomethyl)-isoxazole-3-substituted)-3-(propyl)urea]: the IC50 (on IDO1 enzyme; in assay [1]) was 0.1 to 1 µM each time.
With `O/N=C(\Nc1ccc(F)c(Br)c1)c1cocc1NC(=S)Nc1ccccc1` [Embodiment 137, (Z)-1-(4-(N-(3-bromo-4-fluorophenyl)-N′-hydroxyaminoiminomethyl)-furan-3-substituted)-3-phenylthiourea], the half-inhibitory concentration (IC50) (on IDO1 enzyme; in assay [1]) was 0.1 to 1 µM throughout.
On to `O=C(Nc1nonc1/C(=N/O)Nc1ccc(F)c(Br)c1)NC1CCOCC1` [Embodiment 10, (Z)-1-(4-(N-(3-bromo-4-fluorophenyl)-N′-hydroxyaminoiminomethyl)-1,2,5-oxadiazole-3-substituted)-3-(tetrahydro-2H-pyran-4-substituted)urea], for which the half-maximal inhibitory concentration (IC50) (against IDO1 enzyme; in assay [1]) was less than 0.001 µM each time.
For `NC1CCC(NC(=O)Nc2cocc2/C(=N/O)Nc2ccc(F)c(Br)c2)CC1` (centres unmarked) [Embodiment 66, (Z)-1-(4-(N-(3-bromo-4-fluorophenyl)-N′-hydroxyaminoiminomethyl)-furan-3-substituted)-3-(4-aminocyclohexyl)urea], the 50% inhibitory concentration (IC50) (on IDO1 enzyme; in assay [1]) was 0.1 to 1 µM throughout.
`O=C(Nc1ccc(F)cc1)Nc1nonc1/C(=N/O)Nc1ccc(F)c(Br)c1` [Embodiment 5, (Z)-1-(4-(N-(4-bromo-3-fluorophenyl)-N′-hydroxyaminoiminomethyl)-1,2,5-oxadiazole-3-substituted)-3-(4-fluorophenyl)urea]: the half-maximal inhibitory concentration (IC50) (on IDO1 enzyme; in assay [1]) was greater than 1 µM in each case.
`O/N=C(\Nc1ccc(F)c(Br)c1)c1cocc1NC(=S)NC1CCCCC1` [Embodiment 138, (Z)-1-(4-(N-(3-bromo-4-fluorophenyl)-N′-hydroxyaminoiminomethyl)-furan-3-substituted)-3-cyclohexylthiourea]: the half-maximal inhibitory concentration (IC50) (against IDO1 enzyme; in assay [1]) was 0.1 to 1 µM throughout.
Turning to `O/N=C(\Nc1ccc(F)c(Br)c1)c1nonc1NC(=S)NC1CC1` [Embodiment 125, (Z)-1-(4-(N-(3-bromo-4-fluorophenyl)-N′-hydroxyaminoiminomethyl)-1,2,5-oxadiazole-3-substituted)-3-(cyclopropyl)thiourea], the half-inhibitory concentration (IC50) (against IDO1 enzyme; in assay [1]) was greater than 1 µM throughout.
`O=C(Nc1cocc1/C(=N/O)Nc1ccc(F)c(Br)c1)NC1CC1` [Embodiment 65]: the concentration for half-maximal inhibition (IC50) (against IDO1 enzyme; in assay [1]) was 0.1 to 1 µM throughout.
With `COc1ccc(NC(=N)Nc2cocc2/C(=N/O)Nc2ccc(F)c(Br)c2)cc1` [Embodiment 160, (Z)-1-(4-(N-(3-bromo-4-fluorophenyl)-N′-hydroxyaminoiminomethyl)-furan-3-substituted)-3-(4-methoxyphenyl)guanidine], the IC50 (against IDO1 enzyme; in assay [1]) was 0.1 to 1 µM throughout.

As usually defined, the IC50 is the midpoint of a concentration-inhibition curve. Low readings indicate greater potency in that assay, high ones weaker potency in that assay.
